Earlier results on two molecules are cited in paper PMC11206245 (Pharmaceuticals, 2024).

Each structure is given as a SMILES string. Read-outs that look alike come from different tables or passages of the source.

Details of data set [1]: method as in PMID 22124669, PMID 20618337. The note with it: humans; cited from earlier work.
A further data set relates to dogs. Set-up: method as in PMID 15986212. The note with it: cited from earlier work.

The term half-life denotes how long it takes for the measured level to halve. As to `CO[C@H]1/C=C\C=C(/C)C(=O)NC2=CC(=O)C(N)=C(C[C@@H](C)C[C@H](OC)[C@H](O)[C@@H](C)/C=C(\C)[C@@H]1OC(N)=O)C2=O` [17-AG, 17-amino-geldanamycin], the half-life in data set [1] is 6.2 to 7.6 h.

With `CO[C@H]1/C=C\C=C(/C)C(=O)NC2=CC(=O)C(NCCN(C)C)=C(C[C@@H](C)C[C@H](OC)[C@H](O)[C@@H](C)/C=C(\C)[C@@H]1OC(N)=O)C2=O` [17-DMAG, 17-dimethylaminoethylamino-17-demetoxigeldanamycin], the Toxicity outcome in the data set with dogs (16 mg/m^2 orally) is given as “Toxicity was also observed”; in the data set with dogs (daily intravenous dose of 8 mg/m^2), “Toxicity was also observed”; in the data set with dogs (intravenous daily doses of 16 mg/m^2), “fatal”.
